# What was measured:
# [1] = molecular target: T1, hOT receptor (Homo sapiens, UniProt P30559); assay: In vitro competition binding assay on hOT receptor with scintillating proximity assay; conditions: membranes from HEK293EBNA cells expressing hOT receptor; radiolabel [125I]-OVTA; SPA; read-out: Binding Affinity Human OT-R Ki
# T1 construct: expressed in transfected cells; host or cells: HEK293EBNA cells (membranes)
# T1 sequence (P30559 1-389): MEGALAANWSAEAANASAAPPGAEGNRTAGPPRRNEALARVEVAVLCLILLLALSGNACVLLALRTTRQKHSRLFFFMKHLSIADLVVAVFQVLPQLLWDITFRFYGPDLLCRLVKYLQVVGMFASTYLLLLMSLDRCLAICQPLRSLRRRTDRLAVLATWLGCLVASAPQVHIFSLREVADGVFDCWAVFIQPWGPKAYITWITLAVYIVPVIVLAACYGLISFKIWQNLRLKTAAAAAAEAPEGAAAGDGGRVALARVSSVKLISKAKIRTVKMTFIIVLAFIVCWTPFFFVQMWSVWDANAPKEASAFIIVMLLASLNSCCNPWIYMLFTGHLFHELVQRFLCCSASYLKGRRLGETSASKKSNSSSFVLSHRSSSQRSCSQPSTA
# Outline: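 SPA competition binding using HEK293EBNA membranes expressing hOT receptor (2-4 μg) with WGA beads and 0.2 nM [125I]-OVTA in 50 mM Tris-HCl pH 7.4, 5 mM MgCl2, 0.1% BSA, 30 min at room temperature. Non-specific binding with 1 μM oxytocin; compounds at 10 pM–30 μM; IC50 by nonlinear curve fitting.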
# [2] = tested on: oxytocin-induced uterine contractions in the rat; assay: In vivo model for inhibition of uterine contractions; conditions: anaesthetised DES-treated non-pregnant female rat, route not given
# Protocol: f) In Vivo Model for Inhibition of Uterine Contractions
# The assay intends to show the biological effect of tested compounds in an in vivo model of preterm labor, premature birth.
# Non-pregnant Charles River CD(SD) BR female rats (9-10 weeks old, 200-250 g) were treated at 18 and 24 hours before the experiment with 250 μg/kg, i.p. diethylstilbestrol (DES). For the assay, the animal was anaesthetised by urethane (1.75 g/kg, i.p.) and placed on an homeothennic operating table. The trachea was isolated and cannulated with a suitable polyethylene (PE) tubing. A midline incision at the hypogastrium level was made and one uterine horn exposed, its cephalic end cannulated with a PE240 tubing and, after filling the internal cavity with 0.2 ml of sterile physiological saline, connected to a “Gemini” amplifying/recording system via a P231D Gould Statham pressure transducer. For the i.v. route of administration of the test compounds, one jugular vein was isolated and cannulated with a PE60 tubing connected to a butterfly needle to allow the administration by a dispensing syringe. In the case of intraduodenal administration of the test compounds, the duodenum was isolated and similarly cannulated through a small incision in its wall. One carotid artery was also isolated and cannulated with PE60 catheter and connected to a suitable syringe for blood sample collection (see below). After a stabilization period, the same dose of oxytocin was repeatedly injected intravenously at 30-min intervals. […] Further injections of the same dose of oxytocin were then made for a suitable time after treatment to assess inhibitory effects of the compounds under study. The contractile response of the uterus to oxytocin was quantified by measuring the intra-uterine pressure and the number of contractions. The effect of the reference and test compounds were evaluated by comparing pre- and post-treatment pressure values. In addition, at 2, 30, 90 and 210 minutes after test compound administration, a 0.5-ml blood sample was withdrawn from the cannulated carotid artery of each experimental animal. Plasma was obtained by standard laboratory procedure and the resulting samples were stored at −20° C.
# The activities of the sulfanilide derivatives claimed in the Formula I were assessed using the above described in vivo biological assay. The values refer to the capacity of the example compound according to Formula I to effectively antagonize oxytocin-induced uterine contractions in the rat.
# [3] = molecular target: hV1a (Homo sapiens, UniProt P37288); assay: In vitro competition binding assay on hV1a receptor with scintillating proximity assay; design: expressed in transfected cells; host or cells: CHO cells (membranes); conditions: membranes from CHO cells expressing hV1a receptor; radiolabel [125I]-LVA; SPA; read-out: Binding Affinity Human V1a Ki
# Protocol: b) In Vitro Competition Binding Assay on hV1a Receptor with Scintillating Proximity Assay
# This assays allows to determine the affinity of the test compounds for the V1a receptor. Membranes from CHO cells expressing the hV1a receptor were resuspended in buffer containing 50 mM Tris-HCl, pH 7.4, 5 mM MgCl2 and 0.1% BSA (w/v). The membranes (5-10 μg) were mixed with 0.2 mg wheat-germ aglutinin (WGA) SPA bead (type A) and 0.03 nM of the radiolabel [^125I]-LVA (LVA being Linear Vasopressin Antagonist and is an analogue of AVP for competition binding experiments). Non-specific binding was determined in the presence of 1 μM AVP. The total assay volume was 100 μl. The plates (Corning 0 NBS plate) were incubated at room temperature for 2 hours and counted on a Mibrobeta plate counter. The tests compounds were used in concentrations of 30 μM, 10 μM, 1 μM, 300 nM, 100 nM, 10 nM, 1 nM, 100 pM, 10 pM. The competition binding data were analysed using the iterative, nonlinear, curve-fitting program, Graph pad “Prism”.
# The binding affinities to the Via receptor of the sulfanilide derivatives claimed in the formula I were assessed using the above described in vitro biological assay. The values refer to the binding affinity (IC50; HM) of the example compounds according to formula I to the V1a receptor. From the values shown in Table 1 it can be derived that said test compounds according to formula I do show a significant binding to the Via receptor.
# hV1a, sequence (P37288 whole entry): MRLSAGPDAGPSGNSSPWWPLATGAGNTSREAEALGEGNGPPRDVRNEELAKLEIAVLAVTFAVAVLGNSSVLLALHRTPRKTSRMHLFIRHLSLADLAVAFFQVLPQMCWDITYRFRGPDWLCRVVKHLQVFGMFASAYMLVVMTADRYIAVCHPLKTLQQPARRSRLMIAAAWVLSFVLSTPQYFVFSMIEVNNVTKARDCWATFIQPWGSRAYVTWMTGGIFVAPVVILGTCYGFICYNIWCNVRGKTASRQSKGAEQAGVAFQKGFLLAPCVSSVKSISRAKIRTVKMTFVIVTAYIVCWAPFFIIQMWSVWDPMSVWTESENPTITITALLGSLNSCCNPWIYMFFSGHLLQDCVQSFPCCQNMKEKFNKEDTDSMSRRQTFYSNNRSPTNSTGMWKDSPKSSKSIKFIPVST
smiles,measurement,setting,value
"CCOc1ccc(S(=O)(=O)N(CC(=O)N/N=C2/C(=O)Nc3ccccc32)c2ccc(C)cc2)cc1 [Example 5, 4-ethoxy-N-(4-methylphenyl)-N-{2-oxo-2-[2-(2-oxo-1,2-dihydro-3H-indol-3-ylidene)hydrazino]ethyl}benzenesulfonamide]",Ki,[1],17.3 nM
same,% Reduction of Uterine Contraction,[2]; dose 5 mg/kg,23.9 ± 4.0%
same,% Reduction of Uterine Contraction,[2]; dose 7.5 mg/kg,40.3 ± 4.2%
same,% Reduction of Uterine Contraction,[2]; dose 10 mg/kg,62.6 ± 5.0%
same,Ki,[3],750 nM
